Ten compounds from patent EP3492483A1, “COMPOUNDS AND METHODS FOR TREATING BACTERIAL INFECTIONS” (The Washington University, priority 2009, dated 2011) can be followed below.

In brackets after ≈: the same amount, converted by molar mass. Where two headings read alike, the source gives them in different places.

Series [1] deals with UTI89. As to the kind of experiment: Gentamicin protection assay of infected mouse bladders. As to conditions: 1 hour post-infection, in presence of mannoside. Type of series: in vivo, mice. From the text: Based on the extensive elucidation of the UPEC pathogenic cascade, critical nodes in pathogenesis that mannosides would target and thereby have powerful and potent therapeutic ramifications were identified. The first step in the UPEC pathway involves FimH-mediated colonization of the bladder epithelium via the recognition of mannose receptors. Bacterial invasion into superficial bladder umbrella cells can then ensue. […] To test this, a well-established gentamicin protection assay that allows the determination of the luminally bound fraction versus the intracellular fraction was utilized (Fig 10). […] This may be due to contamination from bacteria in the urine or bacteria that are non-specifically associated with the epithelium. In any case, blocking invasion blocks the ability of the bacteria to rapidly expand in numbers. This is due to the ability of the mannosides to block the IBC mechanism.
The efficacy of in vivo mannoside treatment was evaluated after dosing animals with mannoside either IP or PO 30 min prior to infecting with UTI89. At 6 hpi the bladders were removed and total bacterial CFUs were quantitated. […] Gentamicin efficiently kills extracellular UPEC but is unable to penetrate tissue and thus intracellular bacteria survive gentamicin treatment18. […] In bladders from untreated mice, 10^3 - 10^4 CFUs remained after gentamicin treatment.
Gentamicin protection assay. […] The bladders were then bisected twice and washed three times in 500 µl of PBS each. The wash fractions were pooled, lightly spun at 500 rpm for 5 min to pellet exfoliated bladder cells, serially diluted, and plated onto LB agar to obtain the luminal fraction. The bladders were treated with 100 µg of gentamicin/ml for 90 min at 37°C. After treatment, the bladders were washed twice with PBS to eliminate residual gentamicin, homogenized in 1 ml of PBS, serially diluted, and plated onto LB agar to enumberate the CFUs in the intracellular fraction.

Series [2] relates to UTI89. In words: IBC enumeration by LacZ staining of whole bladders. The series is classed as in vivo, mice. As to conditions: for IBCs (6 hour LacZ): 1mM and 0.1mM mannoside, p<0.0001; for IBCs: 6 hours post-infection. The method, then:
After invasion, UPEC are able to rapidly replicate to form IBCs, thus dramatically expanding in numbers. After maturation of the IBC, bacteria are able to disperse from the biomass and spread to neighboring cells to expand the buildup in bacterial numbers via next generation IBC. The ability of mannosides to block IBC formation was evaluated based on LacZ staining of whole mount bladders, a protocol developed to enumerate IBCs. Whole bladder titers were also determined by quantifying colony forming units (CFUs) at 6 hours post-infection and later time points as test compounds were further developed.
To test the efficacy of the mannosides in vivo, UTI89 expressing type 1 pili were pre-incubated with mannosides, inoculated into mice and IBCs were quantitated at 6 hours post-infection (hpi).
Enumeration of bladder IBCs. For bacterial pretreatment experiments, mannoside was added to the bacterial suspension and incubated for 20 min. For animal pretreatment experiments, mannoside ZFH-2056 was administered either IP (5 mg/kg) or orally (100 mg/kg) 30 min prior to inoculation with UTI89. To accurately count the number of IBCs, mice were sacrificed 6 hpi and bladders were aseptically removed, bisected, splayed on silicone plates and fixed in 2% paraformaldehyde (v/v). IBCs, readily discernable as punctate violet spots, were quantified by LacZ staining of whole bladders.

For series [3], the system named is UTI89. As to the kind of experiment: Bladder bacterial titer (CFU), mouse UTI model, UTI89. The series is classed as in vivo, mice. Particulars: 6 hours post-infection; for CFUs (bacterial load): 1 mM treated bacteria; for bacterial load in the bladder: UTI89 incubated with 5 mM compound before inoculation.
In series [4] the target is T1, FimH (Escherichia coli, UniProt Q1R2J4).
T1 construct: endogenous in cells; host or cells: type 1 piliated UPEC bacteria
As to the kind of experiment: cell-based. As to conditions: for HAI Titer EC>90: Table 1. Also noted: species or system UPEC.

In series [5] the target is FimH (Escherichia coli, UniProt P08191). As to the kind of experiment: biochemical.
Source text: In order to more accurately determine the relative contributions of both binding affinity to FimH versus other compound properties to the potency seen in the cellular HA titer assay, a high-throughput fluorescence polarization (FP) (or anisotropy) competitive binding assay was developed using a fluorescent-labeled mannoside ligand shown in Scheme 4.
A fluorescent polarization assay was developed and miniaturized to monitor the direct binding of a synthesized fluorescently labeled butyl mannose derivative to the FimH receptor as well as competitive displacement by other synthetic mannosides. This fluorescent polarization assay provides a rapid method for monitoring improvements to receptor affinity during the synthetic process, as well as providing Kd binding affinity measurements.
Series [6] deals with UTI89 biofilm. In words: Biofilm formation inhibition assay (PVC, crystal violet). The series is classed as cell-based, UPEC.
Procedure: First, the ability of mannoside derivatives to prevent UPEC type 1 dependent biofilm formation in the published Kolter assay was measured as optimized for the prototypic UTI89 strain used in these assays.
These mannosides were evaluated first for their ability to inhibit biofilm formation or disrupt preformed biofilms. Biofilm inhibition was evaluated on FimH-dependent UTI89 biofilms grown on PVC in LB at room temperature. […] Biofilm disruption was evaluated by the addition of mannosides to preformed 24 h biofilms followed by growth for an additional 16 h.
UTI89 biofilm was grown in LB +/- mannoside for 24 h at 22°C in PVC plates and quantitated using crystal violet.
Biofilm assay. UTI89 was grown in LB broth in wells of PVC microtiter plates at 23°C in the presence of individual mannosides at varying concentrations. After 48 h of growth, wells were rinsed with water and stained with crystal violet for quantification as described. For biofilm disruption activity in PVC plates, UTI89 was grown in LB broth in wells of PVC microtiter plates at 23°C. After 24 h of growth, mannoside was added and biofilms were grown for an additional 16h. Wells were then rinsed, stained with crystal violet and quantified.
In series [7] the test system is PBC-1. In words: Growth curve with TMP-SMZ (MIC). The series is classed as cell-based, UPEC. As to conditions: TMP-SMZ resistant strain; read-out: MIC.
Series [8] can be described thus: Solubility (qualitative statements). As to conditions: in words.
The mark [9] stands for this setting: read-out: HA 50% titer, Table 13.

“3-[3,4,5-trihydroxy-6-(hydroxymethyl)tetrahydropyran-2-yl]oxybenzamide [number 15]”: in series [1], the intracellular bacteria result is given as “significant decrease”. In addition, in series [2], the “IBCs (6 hour LacZ)” value is reported as “significantly reduced IBCs”. Moreover, the “CFUs (bacterial load)” value in series [3] is on record as “significantly reduced colonization”.
Take `CC(=O)Nc1cccc(OC2OC(CO)C(O)C(O)C2O)c1` (stereo not shown) [Compound 1, N-[3-[3,4,5-trihydroxy-6-(hydroxymethyl)tetrahydropyran-2-yl]oxyphenyl]acetamide]: the EC50 amounted to 12 µM in series [4], 12 µM in series [4] (setting [9]) and 0.16 µM in series [5]. For the same compound, the “HAI Titer EC>90” value in series [4] came out at 12.000 µM.
In the case of `CC(=O)Nc1ccc(OC2OC(CO)C(O)C(O)C2O)cc1` (stereo not shown) [Compound 2, N-[4-[3,4,5-trihydroxy-6-(hydroxymethyl)tetrahydropyran-2-yl]oxyphenyl]acetamide], the EC50 in series [4] was found to be 8 µM; in series [4] (setting [9]), 8 µM; in series [5], 0.122 µM. Moreover, the “HAI Titer EC>90” value in series [4] turned out to be 8.000 µM.
For the compound `N#Cc1cccc(OC2OC(CO)C(O)C(O)C2O)c1` (stereo not shown) [Compound 6, 3-[3,4,5-trihydroxy-6-(hydroxymethyl)tetrahydropyran-2-yl]oxybenzonitrile], the “HAI Titer EC>90” value in series [4] worked out at 23.000 µM. For the same compound, the EC50 in series [4] (setting [9]) amounted to 23 µM; in series [5], 0.162 µM.
Take `COC(=O)c1cccc(OC2OC(CO)C(O)C(O)C2O)c1` (stereo not shown) [Compound 8, methyl 3-[3,4,5-trihydroxy-6-(hydroxymethyl)tetrahydropyran-2-yl]oxybenzoate]: in series [4], the EC50 came to 6 µM, the “improvement in potency relative to parent phenyl mannoside 3a” value is “greater than 5 fold” and the “HAI Titer EC>90” value worked out at 6.000 µM. Moreover, in series [4] (read-out: HA 50% Titer, Table 10), the EC50 stood at 8 µM. For the same compound, the EC50 in series [5] was 0.084 µM.
`OCC1OC(OCc2ccccc2)C(O)C(O)C1O` (stereo not shown) [Compound 16, 2-benzyloxy-6-(hydroxymethyl)tetrahydropyran-3,4,5-triol]: the EC50 stood at 60 µM in series [4], 60 µM in series [4] (setting [9]) and 0.187 µM in series [5]. Besides, the “decrease in potency relative to matched pairs 3a and 3b” value in series [4] came to 2 fold. Also, the “HAI Titer EC>90” value in series [4] was determined as 60.000 µM.
On to `CCCCCCCO[C@H]1O[C@H](CO)[C@@H](O)[C@H](O)[C@@H]1O` [Heptylαman, Heptyl mannoside, reference compound], for which the EC50 in series [4] was found to be 15 µM; in series [5], 0.089 µM. Also, the “UPEC biofilm formation in vitro” value in series [6] (1mM) is on record as “inhibited UPEC biofilm formation”. Besides, the “bacterial load in the bladder” value in series [3] was “reduction of bacterial load in the bladder”; in series [3] (listed as heptyl mannose) it was “significant attenuation of virulence”.
Take `Cc1cc(NS(=O)(=O)c2ccc(N)cc2)no1` [SMZ, Sulfamethoxazole]: the minimal inhibitory concentration (MIC) (as a rule, the lowest concentration found to suppress growth) in series [7] was 1280 µg/mL (≈ 5.05 mM).
On to `COC(=O)c1cccc(-c2ccc(OC3OC(CO)C(O)C(O)C3O)cc2)c1` (stereo not shown) [ZFH253], for which the “increase in potency in the HA titer assay over ZFH296” value in series [4] was 16 fold. The “inhibition of FimH-dependent hemagglutination” value in series [4] (in words) is on record as “potent inhibitors”. The half-inhibitory concentration (IC50) (in general, the concentration at which inhibition is half-maximal) in series [6] (PVC, LB, room temperature, read-out: IC50 of mannoside on UTI89 biofilm formation) is 0.94 µM. Besides, in series [1], the intracellular bacteria entry is “significant reduction in intracellular bacteria” and the luminal bacteria entry is listed as “reduction was not observed”. For the same compound, the IBCs entry in series [2] (0.1 mM) is listed as “significant decrease in IBCs”. Besides, the IBCs result in series [2] (1 mM) is “almost no IBCs observed”. Further, the “CFUs (bacterial load)” value in series [3] is on record as “significant decrease”. Also, the solubility result in series [8] is “insoluble”.
Turning to `COC(=O)c1ccc(OC2OC(CO)C(O)C(O)C2O)cc1` (stereo not shown) [number 7], in series [1], the intracellular bacteria result is listed as “significant decrease” and the luminal bacteria entry was “small decrease”. Further, the “IBCs (6 hour LacZ)” value in series [2] is “significantly reduced IBCs”. For the same compound, the “CFUs (bacterial load)” value in series [3] is reported as “significantly reduced colonization”.
